Assay results as given in patent publication US9296734B2 (AMGEN INC., priority 2013, dated 2016).
Like-named read-outs stand apart in the source and are kept apart here.

Legend:
[1] = molecular target: Beta Secretase enzyme (BACE) (Homo sapiens (Human), UniProt P56817); test: In vitro enzymatic BACE FRET assay; format: biochemical; settings: read-out: BACE 1 FRET assay IC50
Protocol: In Vitro Enzymatic BACE FRET (Fluorescence Resonance Energy Transfer) Assay (Enzyme Assay Data in the Example Table I)
The assay buffer used in this screen is 0.05 M acetate, pH 4.2, 10% DMSO final, 100 uM genapol (which is a nonionic detergent, below its Critical Micelle Concentration). […] This assay is effectively started by the addition of FRET substrate (50 nM) and the combination is incubated for one hour. The FRET assay is terminated with by addition of Tris buffer, which raises the pH to neutrality, and the fluorescence is determined. The FRET substrate is a peptide with commercially available fluorophore and quencher, on opposite sides of the BACE cleavage site.

Cathepsin D (Cat D) = Cathepsin D (Cat D) (Homo sapiens (Human), UniProt P07339); test: In vitro enzymatic Cathepsin D (Cat D) FRET assay; format: biochemical; settings: read-out: CatD IC50
Outline: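 CHO-expressed recombinant Cat D cleaves a fluorophore/quencher FRET peptide (20 nM) in 0.05 M citrate pH 3.5, 5 mM CHAPS, 10% DMSO final, over 1 h. Tris addition neutralizes pH to stop the reaction; fluorescence read at excitation 500 nm, emission 580 nm.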

[2] = system: Aβ40 in conditioned medium of cells stably expressing Amyloid Precursor Protein (APP); test: In vitro BACE cell-based assay (Aβ40 sandwich ELISA); settings: Homo sapiens
Protocol: In Vitro BACE Cell-Based Assay
The cell-based assay measures inhibition or reduction of Aβ40 in conditioned medium of test compound treated cells expressing amyloid precursor protein.
Cells stably expressing Amyloid Precursor Protein (APP) were plated at a density of 40K cells/well in 96 well plates (Costar). The cells were cultivated for 24 hours at 37° C. and 5% CO2 in DMEM supplemented with 10% FBS. The test compounds were then added to cells in 10-point dose response concentrations with the starting concentration being either 100 μM or 10 μM. The compounds were diluted from stock solutions in DMSO and the final DMSO concentration of the test compounds on cells was 0.1%. After 24 h of incubation with the test compounds the supernatant conditioned media was collected and the Aβ 40 levels were determined using a sandwich ELISA. The IC50 of the compound was calculated from the percent of control or percent inhibition of Aβ 40 as a function of the concentration of the test compound.
The sandwich ELISA to detect Aβ 40 was performed in 96 well microtiter plates, which were pre-treated with goat anti-rabbit IgG (Pierce). The capture and detecting antibody pair that were used to detect Aβ 40 from cell supernatants were affinity purified pAb40 (Biosource) and biotinylated 6E10 (Signet Labs Inc.), respectively. The optimal concentration for the pAb40 antibody was 3 μg/ml in Superblock/TBS (Pierce) that was supplemented with 0.05% Tween 20 (Sigma).
Cellular supernatants were incubated with the capture antibody for 3 h at 4° C., followed by 3 wash steps in TBS-tween (0.05%). The detecting antibody incubation was for 2 h at 4° C., again followed by the wash steps as described previously. The final readout of the ELISA is Time-Resolved Fluorescence (counts per minute) using Delfia reagents Streptavidin-Europium and Enhancement solutions (Perkin Elmer) and the Victor 2 multilabel counter (Perkin Elmer).

[3] = average IC50, BACE enzyme assay
[4] = average IC50, cathepsin D enzyme assay
[5] = HEK293, average IC50, HEK cell assay, read-out: HEK cell assay IC50
[6] = HEK293, average IC50, HEK cells, read-out: HEK cell assay IC50
[7] = HEK293, HEK cells, average, read-out: HEK cell assay IC50

Chain of Beta Secretase enzyme (BACE) (P56817 46-501): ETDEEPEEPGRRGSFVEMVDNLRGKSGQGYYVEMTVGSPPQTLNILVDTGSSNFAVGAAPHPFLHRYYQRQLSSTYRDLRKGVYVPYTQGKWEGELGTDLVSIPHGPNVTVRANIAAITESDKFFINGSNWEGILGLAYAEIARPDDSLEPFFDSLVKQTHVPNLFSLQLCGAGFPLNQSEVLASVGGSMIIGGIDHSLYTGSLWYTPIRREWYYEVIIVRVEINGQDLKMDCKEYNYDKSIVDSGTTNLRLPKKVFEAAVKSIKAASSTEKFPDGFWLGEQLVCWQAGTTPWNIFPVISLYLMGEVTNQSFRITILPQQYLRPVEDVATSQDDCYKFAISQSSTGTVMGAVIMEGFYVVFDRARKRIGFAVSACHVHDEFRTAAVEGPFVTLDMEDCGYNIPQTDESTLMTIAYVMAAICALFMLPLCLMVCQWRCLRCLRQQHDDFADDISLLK
Chain of Cathepsin D (Cat D) (P07339 65-412, species assumed): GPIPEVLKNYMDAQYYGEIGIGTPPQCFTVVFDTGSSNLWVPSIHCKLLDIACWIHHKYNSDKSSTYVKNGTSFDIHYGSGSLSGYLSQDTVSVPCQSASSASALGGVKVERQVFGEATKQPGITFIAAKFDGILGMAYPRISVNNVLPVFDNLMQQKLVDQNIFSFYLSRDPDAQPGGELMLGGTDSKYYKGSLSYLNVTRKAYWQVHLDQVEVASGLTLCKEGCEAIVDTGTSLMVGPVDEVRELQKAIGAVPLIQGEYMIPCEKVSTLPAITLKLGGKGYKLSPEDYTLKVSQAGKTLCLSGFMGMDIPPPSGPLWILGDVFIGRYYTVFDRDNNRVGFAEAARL

| SMILES | IC50 [1, 3] [µM] | IC50 (Cathepsin D (Cat D); [4]) [µM] | IC50 [2, 5] [µM] | IC50 ([1]; average IC50) [µM] | IC50 (Cathepsin D (Cat D); average IC50) [µM] | IC50 [2, 6] [µM] | other results |
| --- | --- | --- | --- | --- | --- | --- | --- |
| Cc1cc(OC(F)F)cnc1C(=O)Nc1ccc(F)c([C@]2(CF)C[C@@H](C(F)(F)F)OC(N)=N2)c1 [Example 42, N-(3-((4S,6S)-2-amino-4-(fluoromethyl)-6-(trifluoromethyl)-5,6-dihydro-4H-1,3-oxazin-4-yl)-4-fluorophenyl)-5-(difluoromethoxy)-3-methylpicolinamide] | 0.026 | > 400 | 0.051 | – | – | – | – |
| Cn1cc(NC(=O)c2ccc(C#N)cn2)cc([C@]2(C)C[C@@H](C(F)(F)F)OC(N)=N2)c1=O [Example 149, N-(5-((4S,6S)-2-amino-4-methyl-6-(trifluoromethyl)-5,6-dihydro-4H-1,3-oxazin-4-yl)-1-methyl-6-oxo-1,6-dihydropyridin-3-yl)-5-cyanopicolinamide] | – | – | – | 0.239 | > 400 | 0.021 | – |
| C[C@@]1(c2cc(NC(=O)c3ncc(Cl)cc3Cl)cnc2F)C[C@@H](C(F)(F)F)OC(N)=N1 [Example 68, N-(5-((4S,6S)-2-amino-4-methyl-6-(trifluoromethyl)-5,6-dihydro-4H-1,3-oxazin-4-yl)-6-fluoropyridin-3-yl)-3,5-dichloropicolinamide] | – | – | – | 0.0751 | > 400 | 0.111 | – |
| COc1ccc(C(=O)Nc2cc(Cl)c(F)c([C@]3(C)C[C@@H](C(F)(F)F)OC(N)=N3)c2)nc1 [Example 209, N-(3-((4S,6S)-2-amino-4-methyl-6-(trifluoromethyl)-5,6-dihydro-4H-1,3-oxazin-4-yl)-5-chloro-4-fluorophenyl)-5-methoxypicolinamide] | – | – | – | – | – | – | IC50 ([1]; average): 0.015 µM; IC50 (Cathepsin D (Cat D); average): 622 µM; IC50 [2, 7]: 0.035 µM |
| CC#Cc1ccc(-c2ccc(F)c([C@]3(CF)C[C@@H](C(F)(F)F)OC(N)=N3)c2)cn1 [Example 113, (4S,6S)-4-(2-fluoro-5-(6-(prop-1-yn-1-yl)pyridin-3-yl)phenyl)-4-(fluoromethyl)-6-(trifluoromethyl)-5,6-dihydro-4H-1,3-oxazin-2-amine] | 27.4 | 170 | > 15.6 | – | – | – | – |
| NC1=N[C@](CF)(c2cc(Nc3nccc4cc(Cl)cnc34)ccc2F)C[C@@H](C(F)(F)F)O1 [Example 8, (4S,6S)-4-(5-((3-chloro-1,7-naphthyridin-8-yl)amino)-2-fluorophenyl)-4-(fluoromethyl)-6-(trifluoromethyl)-5,6-dihydro-4H-1,3-oxazin-2-amine] | – | – | – | 0.018 | > 400 | 0.203 | – |
| Cc1cc(Cl)cnc1C(=O)Nc1cnc(F)c([C@]2(C)C[C@@H](C(F)(F)F)OC(N)=N2)c1 [Example 61, N-(5-((4S,6S)-2-amino-4-methyl-6-(trifluoromethyl)-5,6-dihydro-4H-1,3-oxazin-4-yl)-6-fluoropyridin-3-yl)-5-chloro-3-methylpicolinamide] | – | – | – | 0.0552 | > 400 | 0.0391 | – |
| NC1=N[C@](CF)(c2cc(NC(=O)c3ccc(OCC(F)(F)F)cn3)ccc2F)C[C@@H](C(F)(F)F)O1 [Example 5, N-(3-((4S,6S)-2-amino-4-(fluoromethyl)-6-(trifluoromethyl)-5,6-dihydro-4H-1,3-oxazin-4-yl)-4-fluorophenyl)-5-(2,2,2-trifluoroethoxy)picolinamide] | – | – | – | 0.043 | > 400 | 0.263 | – |
| C#CCOc1ccc(C(=O)Nc2cc(F)c(F)c([C@]3(CF)C[C@@H](C(F)(F)F)OC(N)=N3)c2)nc1 [Example 159, N-(3-((4S,6S)-2-amino-4-(fluoromethyl)-6-(trifluoromethyl)-5,6-dihydro-4H-1,3-oxazin-4-yl)-4,5-difluorophenyl)-5-(prop-2-yn-1-yloxy)picolinamide] | 0.013 | > 400 | 0.093 | – | – | – | – |
| Cc1cc(C#N)cnc1C(=O)Nc1cc([C@]2(C)C[C@@H](C(F)(F)F)OC(N)=N2)c(=O)n(C)c1 [Example 150, N-(5-((4S,6S)-2-amino-4-methyl-6-(trifluoromethyl)-5,6-dihydro-4H-1,3-oxazin-4-yl)-1-methyl-6-oxo-1,6-dihydropyridin-3-yl)-5-cyano-3-methylpicolinamide] | – | – | – | 0.121 | > 400 | 0.0101 | – |
| C[C@@]1(c2cc(NC(=O)c3cnc(OCC(F)(F)F)cn3)cc(F)c2F)C[C@@H](C(F)(F)F)OC(N)=N1 [Example 186, N-(3-((4S,6S)-2-amino-4-methyl-6-(trifluoromethyl)-5,6-dihydro-4H-1,3-oxazin-4-yl)-4,5-difluorophenyl)-5-(2,2,2-trifluoroethoxy)pyrazine-2-carboxamide] | – | – | – | – | – | – | IC50 ([1]; average): 0.021 µM; IC50 (Cathepsin D (Cat D); average): > 400 µM; IC50 [2, 7]: 0.015 µM |
| NC1=N[C@](CF)(c2cc(-c3ncc4cc(F)ccc4n3)ccc2F)C[C@@H](C(F)(F)F)O1 [Example 114, (4S,6S)-4-(2-fluoro-5-(6-fluoroquinazolin-2-yl)phenyl)-4-(fluoromethyl)-6-(trifluoromethyl)-5,6-dihydro-4H-1,3-oxazin-2-amine] | > 40 | 758 | > 15.6 | – | – | – | – |
| COc1ccc(C(=O)Nc2cc(F)c(F)c([C@]3(CF)C[C@@H](C(F)(F)F)OC(N)=N3)c2)nc1 [Example 156, N-(3-((4S,6S)-2-amino-4-(fluoromethyl)-6-(trifluoromethyl)-5,6-dihydro-4H-1,3-oxazin-4-yl)-4,5-difluorophenyl)-5-methoxypicolinamide] | 0.062 | > 400 | 0.123 | – | – | – | – |
| C[C@@]1(c2nc(NC(=O)c3nn(C(F)F)cc3Cl)ccc2F)C[C@@H](C(F)(F)F)OC(N)=N1 [Example 88, N-(6-((4S,6S)-2-amino-4-methyl-6-(trifluoromethyl)-5,6-dihydro-4H-1,3-oxazin-4-yl)-5-fluoropyridin-2-yl)-4-chloro-1-(difluoromethyl)-1H-pyrazole-3-carboxamide] | 0.032 | 712 | 0.01 | – | – | – | – |
| Cc1cc(OCC2CC2)cnc1C(=O)Nc1cc(F)c(F)c([C@]2(C)C[C@@H](C(F)(F)F)OC(N)=N2)c1 [Example 191, N-(3-((4S,6S)-2-amino-4-methyl-6-(trifluoromethyl)-5,6-dihydro-4H-1,3-oxazin-4-yl)-4,5-difluorophenyl)-5-(cyclopropylmethoxy)-3-methylpicolinamide] | – | – | – | – | – | – | IC50 ([1]; average): 0.097 µM; IC50 (Cathepsin D (Cat D); average): 511 µM; IC50 [2, 7]: 0.549 µM |
| COc1cc(Cl)cnc1C(=O)Nc1cc(C)c(F)c([C@]2(CF)C[C@@H](C(F)(F)F)OC(N)=N2)c1 [Example 222, N-(3-((4S,6S)-2-amino-4-(fluoromethyl)-6-(trifluoromethyl)-5,6-dihydro-4H-1,3-oxazin-4-yl)-4-fluoro-5-methylphenyl)-5-chloro-3-methoxypicolinamide] | – | – | – | – | – | – | IC50 ([1]; average): 0.091 µM; IC50 (Cathepsin D (Cat D); average): > 400 µM; IC50 [2, 7]: 0.029 µM |
| C[Si](C)(C)C#Cc1ccc(-c2ccc(F)c([C@]3(CF)C[C@@H](C(F)(F)F)OC(N)=N3)c2)cn1 [Example 111, (4S,6S)-4-(2-fluoro-5-(6-((trimethylsilyl)ethynyl)pyridin-3-yl)phenyl)-4-(fluoromethyl)-6-(trifluoromethyl)-5,6-dihydro-4H-1,3-oxazin-2-amine] | 37.2 | > 400 | – | – | – | – | IC50 ([2]; HEK293, read-out: HEK cell assay IC50): > 15.6 µM |
| NC1=N[C@](CF)(c2cc(NC(=O)c3ccc(Cl)cn3)cc(F)c2F)C[C@@H](C(F)(F)F)O1 [Example 152, N-(3-((4S,6S)-2-amino-4-(fluoromethyl)-6-(trifluoromethyl)-5,6-dihydro-4H-1,3-oxazin-4-yl)-4,5-difluorophenyl)-5-chloropicolinamide] | 0.026 | 2750 | 0.087 | – | – | – | – |
